According to patent publication US9255257B2, “PmST1 mutants for chemoenzymatic synthesis of sialyl lewis X compounds” (THE REGENTS OF THE UNIVERSITY OF CALIFORNIA, priority 2011, dated 2016):

Columns and labels:
[1] = target: Pasteurella multocida PmST1 mutant D141A (Pasteurella multocida, UniProt Q15KI8, D141A); test: CMP-Neu5Ac (donor) hydrolysis activity, capillary electrophoresis; settings: apparent, Tris-HCl pH 8.5, 37° C., 40 min
Protocol: (§4) The reactions were stopped by adding 10 μL of pre-chilled ethanol. The mixtures were incubated on ice for 30 min and centrifuged at 13,000 rpm for 5 min. The supernatants were diluted with borate buffer (25 mM, pH 9.5) and aliquotes of 5 μL each were injected to a Beckman Coulter P/ACE™ MDQ Capillary Electrophoresis system equipped with a capillary (60 cm×75 μm i.d.) and monitored at 254 nm. The apparent kinetic parameters were obtained by fitting the experimental data (the average values of duplicate assay results) into the Michaelis-Menten equation using Grafit 5.0.

[2] = target: Pasteurella multocida PmST1 mutant E271F of SEQ ID NO: 13 (E247F of Δ24PmST1, SEQ ID NO: 7) (Pasteurella multocida, UniProt Q15KI8, E271F); test: α2-3-sialyltransferase activity, LacβMU as acceptor; assay type: biochemical; settings: apparent, donor, LacβMU 1 mM, Tris-HCl pH 8.5, 37° C.
Protocol: (§1) To obtain the apparent kinetic parameters of LacβMU as the acceptor for the α2-3-sialyltransferase activity, the kinetic assays were performed in duplicate in reaction mixtures of 10 μL containing Tris-HCl buffer (100 mM, pH 8.5), a fixed concentration of CMP-Neu5Ac (1 mM), different concentrations of LacβMU (0.2, 0.5, 1.0, 2.0, 5.0, and 9.0 mM) and the mutant proteins (2 μg mL^−1 of E271F, 2 μg mL^−1 of R313Y, and 1.6 μg mL^−1 of E271F/R313Y). All reactions were allowed to proceed at 37° C. for 5 min (E271F), 7 min (R313Y), and 10 min (E271F/R313Y). The apparent kinetic parameters were obtained by fitting the experimental data (the average values of duplicate assay results) into the Michaelis-Menten equation using Grafit 5.0.
(§2) To obtain the apparent kinetic parameters of CMP-Neu5Ac as the donor for the α2-3-sialyltransferase activity, the kinetic assays were performed in duplicate in reaction mixtures of 10 μL containing Tris-HCl buffer (100 mM, pH 8.5), a fixed concentration of LacβMU (1 mM), different concentrations of CMP-Neu5Ac (0.1, 0.2, 0.5, 1.0, 2.0, 5.0, 10.0 and 20.0 mM) and the mutant proteins (2 μg mL^−1 of E271F, 2 μg mL^−1 of R313Y, and 1.6 μg mL^−1 of E271F/R313Y). All reactions were allowed to proceed at 37° C. for 2 min (E271F), 7 min (R313Y), and 5 min (E271F/R313Y). The apparent kinetic parameters were obtained by fitting the experimental data (the average values of duplicate assay results) into the Michaelis-Menten equation using Grafit 5.0.
(§3) All the sialidase and α2-3-sialyltransferase assays were performed in an HPLC system. Reactions were stopped by adding 10 μL of ethanol. After necessary dilutions were performed to adjust the concentrations of the fluorescent-labeled compounds, the samples were then kept on ice until aliquots of 8 μL were injected and analyzed by a Shimadzu LC-6AD system equipped with a membrane on-line degasser, a temperature control unit, and a fluorescence detector (Shimadzu RF-10AXL). A reverse-phase Premier C18 column (250×4.6 mm i.d., 5 μm particle size, Shimadzu) protected with a C18 guard column cartridge was used. The mobile phase was 25% acetonitrile. The fluorescent compounds LacβMU and Neu5Acα2-3LacβMU were detected by excitation at 325 nm and emission at 372 nm.

[3] = target: Pasteurella multocida PmST1 mutant R313Y of SEQ ID NO: 13 (R289Y of Δ24PmST1, SEQ ID NO: 9) (Pasteurella multocida, UniProt Q15KI8, R313Y); test: as above; assay type: biochemical; settings: apparent, donor, LacβMU 1 mM, Tris-HCl pH 8.5, 37° C.
Protocol: as §1, §2, §3

[4] = target: Pasteurella multocida PmST1 double mutant E271F/R313Y of SEQ ID NO: 13 (E247F/R289Y of Δ24PmST1, SEQ ID NO: 11) (Pasteurella multocida, UniProt Q15KI8, E271F/R313Y); test: as above; assay type: biochemical; settings: apparent, donor, LacβMU 1 mM, Tris-HCl pH 8.5, 37° C.
Protocol: as §1, §2, §3

[5] = target: Pasteurella multocida α2-3-sialyltransferase 1 (PmST1), wild type (WT), SEQ ID NO: 13 (Pasteurella multocida, UniProt Q15KI8); settings: apparent, donor, with LacβMU, read-out: Km for CMP-Neu5Ac; cited from earlier work
[6] = target: Pasteurella multocida PmST1 mutant H311A (Pasteurella multocida, UniProt Q15KI8, H311A); test: CMP-Neu5Ac (donor) hydrolysis activity, capillary electrophoresis; settings: apparent, Tris-HCl pH 8.5, 37° C., 20 min
Protocol: as §4

**Q.** Which kcat [1] does the source give for `CC(=O)N[C@H]1[C@H]([C@H](O)[C@H](O)CO)O[C@](OP(=O)(O)OC[C@H]2O[C@@H](n3ccc(N)nc3=O)[C@H](O)[C@@H]2O)(C(=O)O)C[C@@H]1O` [CMP-Neu5Ac] here?
**A.** (2.5 ± 0.1) × 10^−2 s^−1

**Q.** What about the “kcat (CMP-Neu5Ac)” value [2] of the same compound?
**A.** 26 ± 1 s⁻¹

**Q.** And the “kcat (CMP-Neu5Ac)” value [3]?
**A.** 19 ± 1 s⁻¹

**Q.** What about the “kcat (CMP-Neu5Ac)” value [4] of the same compound?
**A.** 23 ± 1 s⁻¹

**Q.** What about the Km [5] of the same compound?
**A.** 440 µM

**Q.** What about the kcat [6] of the same compound?
**A.** 2.1 ± 0.1 s⁻¹
